In patent US8129532B2, “Amino(oligo)thiophene dyes, preparation thereof, and optical methods of use” (The University of Connecticut, priority 2007, dated 2012):

Tests used:
[1] = One-photon absorption and emission spectra in multilamellar lipid vesicles, water and ethanol; format: physicochemical; conditions: for 1PF Abs. Max / 1PF Em. Max: one photon, soybean multi-lamellar lipid vesicles
Text: […] The column indicating relative signal change for one-photon fluorescence also lists the excitation light source used and the lower bounds of the long-pass emission detected.
Absorption and emission spectra were obtained for a series of dyes with different acceptors: pyridinium (PY-1261), quinolinium (PY-212), and acridinium (PY-2240).

[2] = test system: layer V pyramidal neurons; assay: Voltage-sensitive dye imaging of action potentials in intracellularly stained pyramidal neurons in brain slices; format: cell-based, Sprague Dawley rats; conditions: for dF/F at 658 nm: backpropagating AP, basal dendrites 80-150 μm from soma, %; for dF/F at 658 nm / S/N ratio at 658 nm: laser spot 658 nm
Text: Sprague Dawley rats (P21-42) were anesthetized with isoflurane, decapitated, and the brains were removed with the head immersed in ice-cold, artificial cerebrospinal fluid (ACSF), according to an animal protocol approved by the Center for Laboratory Animal Care, University of Connecticut. Brain slices (300 μm) were cut from frontal lobes in the coronal plane. ACSF contained (in mM) 125 NaCl, 26 NaHCO3, 10 glucose, 2.3 KCl, 1.26 KH2PO4, 2 CaCl2 and 1 MgSO4, pH 7.4. Whole-cell recordings were made from visually identified layer V pyramidal neurons on the medial part of the slice. Intracellular solution contained (in mM) 135 K-gluconate, 2 MgCl2, 3 Na2-ATP, 10 Na2-phosphocreatine, 0.3 Na2-GTP and 10 Hepes (pH 7.3, adjusted with KOH). Electrical signals were amplified with Multiclamp 700A and digitized with two input boards: (1) Digidata Series 1322A (Axon Instruments) at 5 kHz, and (2) Neuroplex (RedShirtImaging) at 2.7 kHz sampling rate. Only cells with a membrane potential more hyperpolarized than −50 mV, and action potential amplitudes exceeding 80 mV (measured from the base line) were included in this study. All experiments were performed on layer 5 cortical pyramidal cells at 34° C.
Blue dyes were stored in ethanol stock solution at −20° C. On the day of the recording blue dyes were dissolved in standard K-gluconate based intracellular solution. A loading pipette was filled with two varieties of the same intracellular solution; one with and one without dye. Dye-free solution was occupying the very tip of the pipette, while the back of the pipette lumen was microloaded with dye-rich solution. The purpose of dye-free solution in the tip of the patch pipette was to prevent dye-leak during the maneuver through brain slice tissue. VSD styryl dyes are lipophilic and bind indiscriminately and irreversibly to all membranes around the neuron of interest. Even a small amount of dye that leaks out of the pipette during the formation of the gigaohm seal, can generate strong fluorescent background. Fluorescent light emanating from surrounding tissue has a devastating effect on dendritic optical signals. Elimination of the background fluorescence is critical for dendritic voltage imaging. How much dye-free solution one should put in the tip depends on time period between the submersion of the patch pipette into the recording chamber and formation of the gigaohm seal. The faster one can perform this maneuver the less dye-free solution she needs to achieve optimal staining.
Blue VSD were injected at room temperature for 25-60 minutes. The filling pipette was carefully pulled out (outside-out patch) and brain slices were left to incubate for 20-120 minutes at room temperature. Just before optical recordings the cells were re-patched with dye-free pipette at the physiological temperature (34° C.).
Voltage-sensitive dye imaging was performed on a Zeiss Axioskope 2FS microscope equipped with NeuroCCD camera (RedShirtImaging). We used Zeiss 40× objective IR-Achroplan 0.80 W. The size of the square visual field captured by NeuroCCD camera was 384×384 um. In the place of the arc lamp (normally used for epi-illumination), we inserted a 200 μm fiber optic guide with a collimator. Laser beam was focused on the other side of the fiber optic guide using a microscope objective-like lens. This arrangement produced a motionless spot of laser light (˜25 μm in diameter) at the object plane. An illuminated section of the brain slice, projected onto the NeuroCCD camera, covered approximately 25 pixels when used with 40× objective lens. At this magnification, one pixel sampled a 4.8×4.8 square in the object plane. A region of interest (ROI) was brought into the laser spot using X-Y microscope platform. The laser beam was interrupted by an electro-programmable shutter (Uniblitz®). Attention was made to limit the exposure time during the recording and positioning of the neuron.

[3] = test system: NIE-115 mouse neuroblastoma; assay: Time-dependence (kinetics) of SHG and 2PF signal change after voltage-clamp step; format: cell-based
Text: For full details of our non-linear imaging microscope, we refer the reader to previously published descriptions. A. C. Millard, P. J. Campagnola, W. Mohler, A. Lewis, and L. M. Loew, “Second Harmonic Imaging Microscopy,” Meth. Enzymol. 361, 47-69 (2003); Millard, A. C., L. Jin, and L. M. Loew, “Second Harmonic Generation Imaging Microscopy with a High Power Ultrafast Fiber Laser,”Commercial and Biomedical Applications of Ultrafast Lasers. 5714-5716, 92-98 (2005); A. C. Millard, L. Jin, M.-D. Wei, J. P. Wuskell, A. Lewis, and L. M. Loew, “Sensitivity of Second Harmonic Generation from Styryl Dyes to Transmembrane Potential,” Biophys. J. 86, 1169-1176 (2004). Our current microscope combines a Fluoview (Olympus) scan-head and an Axiovert (Zeiss) inverted microscope constructed for multiple imaging methodologies including wide-field, one-photon excitation fluorescence imaging, as well as SHG and 2PF imaging. Our laser sources include a Mira (Coherent) Ti:sapphire laser and a Femtopower (Fianium) fiber laser operating at 1064 nm. Millard, A. C., L. Jin, and L. M. Loew, “Second Harmonic Generation Imaging Microscopy with a High Power Ultrafast Fiber Laser,”Commercial and Biomedical Applications of Ultrafast Lasers. 5714-5716, 92-98 (2005). For excitation, we routinely use an IR-Achroplan (Zeiss) 40×, 0.8 NA water-immersion objective though for shorter wavelengths we also use an A-Plan (Zeiss) 40×, 0.65 NA air objective. Fluorescence is imaged (for linear imaging) or collected (for non-linear imaging) back through the excitation objective, while SHG is collected in the forward, transmitted light direction by a condenser, either 0.8 NA or 0.55 NA (Zeiss). For optimal collection, the numerical aperture of the condenser should be at least 1/√2 of the numerical aperture of the excitation objective (L. Moreaux, O. Sandre, S. Charpak, M. Blanchard-Desce, and J. Mertz, “Coherent Scattering in Multi-Harmonic Light Microscopy,” Biophys. J. 80, 1568-1574 (2001); L. Moreaux, O. Sandre, and J. Mertz. “Membrane Imaging by Second Harmonic Generation Microscopy,” J. Opt. Soc. Am. B. 17, 1685-1694 (2000)), though in practice a condenser of slightly lower numerical aperture will often suffice. Since the wavelength of second harmonic light is precisely half that of the excitation light, the choice of filter for SHG imaging is greatly simplified and the primary concern is the blocking of the excitation light that is also transmitted through the sample as well as fluorescence that is emitted forwards.
NIE-115 mouse neuroblastoma were cultured in DMEM with 10% fetal bovine serum and 1% antibiotic-antimycotic (Invitrogen, Carlsbad, Calif.) in a 60 mm plastic dish (353002, Becton Dickinson, Franklin Lakes, N.J.). The culture was maintained at 37° C. with 5% CO2 for a period of 48 hours prior to experimentation.
For experimentation the growth medium was replaced with 3 mL of Earle's Balanced Salt Solution (EBSS, Sigma, St. Louis, Mo.) with 20 mM HEPES (Merck Biosciences AG, Laufelfingen, Switzerland). The internal buffer, injected into the patch pipette, was a potassium aspartate (140 mM, Sigma, St. Louis, Mo.), sodium chloride (5 mM, Sigma, St. Louis, Mo.) and HEPES (10 mM) solution at a pH of 7.35. The pH was adjusted with potassium hydroxide and hydrochloric acid.
For characterizing the voltage-sensitivity of SHG and 2PF, we used a slow (˜0.1 Hz) switching protocol as previously described (A. C. Millard, P. J. Campagnola, W. Mohler, A. Lewis, and L. M. Loew, “Second Harmonic Imaging Microscopy,” Meth. Enzymol. 361, 47-69 (2003); Millard, A. C., L. Jin, and L. M. Loew, “Second Harmonic Generation Imaging Microscopy with a High Power Ultrafast Fiber Laser,” Commercial and Biomedical Applications of Ultrafast Lasers. 5714-5716, 92-98 (2005); A. C. Millard, L. Jin, M.-D. Wei, J. P. Wuskell, A. Lewis, and L. M. Loew, “Sensitivity of Second Harmonic Generation from Styryl Dyes to Transmembrane Potential,” Biophys. J. 86, 1169-1176 (2004)) with a 50 mV step. […]

[4] = One-photon fluorescence relative signal change per 100 mV; conditions: excitation / long-pass emission (nm) given
Text: The left-most data columns of Table 1 are the absorption and emission maxima for one photon fluorescence in soybean multi-lamellar lipid vesicles used to mimic the membrane environment. The column indicating relative signal change for one-photon fluorescence also lists the excitation light source used and the lower bounds of the long-pass emission detected.

CN(C)c1ccc(/C=C/c2ccc(/C=C/c3cc[n+](CCC[N+](C)(C)C)c4ccccc34)o2)cc1 [JPW-3080]
Absorbance ethanol [1]: 630 nm
Emission ethanol [1]: 896 nm
Absorbance MLV ([1]; multilamellar lipid vesicles): 569 nm
Emission MLV ([1]; multilamellar lipid vesicles): 730 nm
Absorbance water [1]: 554 nm
polarity of optical signal at 532 nm excitation [2]: negative optical signals
polarity of optical signal at 658 nm excitation [2]: positive
dF/F at 658 nm [2]: 5.13 ± 1.20%
S/N ratio at 658 nm [2]: 6.20 ± 2.29
average amplitude of AP-associated optical signal, 658 nm excitation ([2]; n=4 cells, N=24 measurements): 4.13±0.96 % ΔF/F
average size of AP-associated optical signal, 532 nm excitation ([2]; same 4 cells): 0.97±0.26 % ΔF/F
average amplitude ratio of AP-associated signal at two wavelengths (658/532 nm) ([2]; same cell and region of interest): 4.39±1.07

CCN(CC)c1ccc(-c2ccc(-c3ccc(/C=C/c4cc[n+](CCC[N+](CC)(CC)CC)cc4)s3)s2)s1 [PY-1268]
SHG kinetics, in words [3]: instantaneously
2PF signal sensitivity detected between 750-850 nm ([3]; kinetics data, FIG. 3c): 4.28 %/50 mV
2PF kinetics (time of signal change) ([3]; time resolution 5 ms): ≤ 5 ms
SHG Kinetics (exponential time constant) ([3]; time resolution 5 ms): <5 ms
Absorbance ethanol [1]: 588 nm
Absorbance MLV ([1]; multilamellar lipid vesicles): 535 nm
1PF Abs. Max [1]: 535 nm
1PF Em. Max [1]: 714 nm
Absorbance water [1]: 508 nm
dF/F at 658 nm [2]: 5.89 ± 3.41%
S/N ratio at 658 nm [2]: 4.44 ± 0.75
1PF Change (ΔF/F-100 mv) [4]: 4.2E−002; 640/>715 ΔF/F-100 mv

CC[N+](CC)(CC)CCC[n+]1ccc(/C=C/c2ccc(-c3ccc(N4CCCC4)s3)s2)cc1 [PY-1274]
1PF Abs. Max [1]: 551 nm
1PF Em. Max [1]: 691 nm
1PF Change (ΔF/F-100 mv) [4]: 5.0E−002; 620/>715 ΔF/F-100 mv

CCC[N+](CCC)(CCC)CCC[n+]1ccc(/C=C/c2ccc(-c3ccc(N(CC)CC)s3)s2)cc1 [PY-1278]
SHG kinetics, in words [3]: instantaneous
1PF Abs. Max [1]: 555 nm
1PF Em. Max [1]: 688 nm
1PF Change (ΔF/F-100 mv) [4]: 7.9E−002; 640/>715 ΔF/F-100 mv

CCCCN(CCCC)c1ccc2cc(/C=C/C=C/c3cc[n+](CCC[N+](C)(C)C)c4ccccc34)ccc2c1.[Br-].[Br-] [di-4-ANBDQPQ, Di-4-ANBDQPQ, reference compound]
SHG Kinetics (exponential time constant) ([3]; time resolution 5 ms): <5 ms
Absorbance ethanol [1]: 603 nm
Emission ethanol [1]: 818 nm
Absorbance MLV ([1]; multilamellar lipid vesicles): 539 nm
1PF Abs. Max [1]: 539 nm
1PF Em. Max [1]: 708 nm
Absorbance water [1]: 552 nm
dF/F at 658 nm [2]: 1.23 ± 0.66%
S/N ratio at 658 nm [2]: 4.97
1PF Change (ΔF/F-100 mv) [4]: 2.0E−001; 618/>715 ΔF/F-100 mv

CCCCN(CCCC)c1ccc2cc(/C=C/c3cc[n+](CCC[N+](C)(C)C)c4ccccc34)ccc2c1.[Br-].[Br-] [di-4-ANEQPQ, reference compound]
SHG Kinetics (exponential time constant) ([3]; time resolution 5 ms): 76 ± 13 ms
1PF Abs. Max [1]: 528 nm
1PF Em. Max [1]: 670 nm
1PF Change (ΔF/F-100 mv) [4]: 1.2E−001; 610/>665 ΔF/F-100 mv

CCCCN(CCCC)c1ccc2cc(/C=C/C=C/C=C/c3cc[n+](CCC[N+](C)(C)C)c4ccccc34)ccc2c1.[Br-].[Br-] [di-4-ANHTQPQ, reference compound]
SHG Kinetics (exponential time constant) ([3]; time resolution 5 ms): 34 ± 3 ms
1PF Abs. Max [1]: 504 nm
1PF Em. Max [1]: 655 nm
1PF Change (ΔF/F-100 mv) [4]: 5.4E−002; 630/>715 ΔF/F-100 mv
